Data from patent US7247727B2, “Azaindole thiazolinones” (Hoffmann-La Roche Inc., priority 2004, dated 2007).

What was measured:
CDK1/Cyclin B = CDK1/Cyclin B (Homo sapiens, UniProt P06493); assay: CDK1/Cyclin B kinase assay (FlashPlate or HTRF); type: biochemical; settings: recombinant human CDK1/Cyclin B, Rb protein substrate; Ki=IC50/(1+[S]/Km)
Protocol: To determine inhibition of CDK1 activity, either FlashPlate™ (NEN™-Life Science Products) assay or HTRF assay was performed. Both types of kinase assays were carried out using recombinant human CDK1/Cyclin B complex. GST-cyclinB (GST-cycB) and CDK1 cDNA clones in baculovirus vectors were provided by Dr. W. Harper at the Baylor College of Medicine, Houston, Tex. Proteins were co-expressed in High Five™ insect cells and the complex was purified on glutathione Sepharose resin (Pharmacia, Piscataway, N.J.) as previously described (Harper, J. W. et al. Cell 1993, 75, 805-816). A 6x-Histidine tagged truncated form of retinoblastoma (Rb) protein (amino acid 386-928) was used as the substrate for the CDK1/Cyclin B assay (the expression plasmid was provided by Dr. Veronica Sullivan, Department of Molecular Virology, Roche Research Centre, Welwyn Garden City, United Kingdom). The Rb protein is a natural substrate for phosphorylation by CDK1 (see Herwig and Strauss Eur. J. Biochem. Vol. 246 (1997) pp. 581-601 and the references cited therein). The expression of the 62Kd protein was under the control of an IPTG inducible promoter in an M15 E. coli strain. Cells were lysed by sonication and purification was carried out by binding lysates at pH 8.0 to a Ni-chelated agarose column pretreated with 1 mM imidazole. The resin was then washed several times with incrementally decreasing pH buffers to pH 6.0, and eluted with 500 mM imidazole. Eluted protein was dialyzed against 20 mM HEPES pH 7.5, 30% glycerol, 200 mM NaCl, and 1 mM DTT. Purified Rb fusion protein stocks were quantitated for protein concentration, aliquoted, and stored at −70° C.
For the FlashPlate kinase assay, 96-well FlashPlates were coated with Rb protein at 10 μg/ml, using 100 μl per well. Plates were incubated at 4° C. overnight or at room temperature for 3 hours on a shaker. […] Plates were washed four times with the wash buffer, sealed, and counted on the TopCount scintillation counter (Packard Instrument Co., Downers Grove, Ill.]. The percent inhibition of Rb phosphorylation, which is a measure of the inhibition of CDK activity, was determined according to the following formula:
[formula] where “test compound” refers to the average counts per minute of the test duplicates, “nonspecific” refers to the average counts per minute when no CDK1/Cyclin B, etc., was added, and “total” refers to the average counts per minute when no compound was added. […] The value of the inhibitor constant Ki is calculated by the following: Ki=IC50/(1+[S]/Km), where [S] is the ATP concentration and Km is Michaelis constant.
The Homogeneous Time Resolved Fluorescence (HTRF) kinase assay was carried out in 96-well polypropylene plates (BD Biosciences, Bedford, Mass.). […]

CDK2/Cyclin E = CDK2/Cyclin E (Homo sapiens, UniProt P24941); assay: CDK2/Cyclin E kinase assay (procedure as for CDK1/Cyclin B); type: biochemical; settings: CDK2/Cyclin E complex, Rb protein substrate; Ki=IC50/(1+[S]/Km)
Protocol: For the FlashPlate kinase assay, 96-well FlashPlates were coated with Rb protein at 10 μg/ml, using 100 μl per well. Plates were incubated at 4° C. overnight or at room temperature for 3 hours on a shaker. To control for nonspecific phosphorylation, one row of wells was coated with 100 μl/well coating buffer (20 mM HEPES, 0.2 M NaCl). Plates were then washed twice with wash buffer (0.01% Tween 20 in phosphate-buffered saline). Compounds to be tested (“test compounds”) were added to the wells at 5× final concentration. Reactions were initiated by immediate addition of 40 μl reaction mix (25 mM HEPES, 20 mM MgCl2, 0.002% Tween 20, 2 mM DTT, 1 μM ATP, 4 nM 33P-ATP) and a sufficient amount of enzyme to give counts that were at least 10-fold above background. Plates were incubated at room temperature on a shaker for 30 minutes. Plates were washed four times with the wash buffer, sealed, and counted on the TopCount scintillation counter (Packard Instrument Co., Downers Grove, Ill.]. The percent inhibition of Rb phosphorylation, which is a measure of the inhibition of CDK activity, was determined according to the following formula:
[formula] where “test compound” refers to the average counts per minute of the test duplicates, “nonspecific” refers to the average counts per minute when no CDK1/Cyclin B, etc., was added, and “total” refers to the average counts per minute when no compound was added. The IC50 value is the concentration of test compound that reduces by 50% the protein-kinase induced incorporation of the radiolabel under the test conditions described. The value of the inhibitor constant Ki is calculated by the following: Ki=IC50/(1+[S]/Km), where [S] is the ATP concentration and Km is Michaelis constant.
The Homogeneous Time Resolved Fluorescence (HTRF) kinase assay was carried out in 96-well polypropylene plates (BD Biosciences, Bedford, Mass.). Test compounds were first dissolved in DMSO, and then diluted in kinase assay buffer 1 (25 mM HEPES, pH7.0, 8 mM MgCl2, 1.5 mM DTT, and 162 μM ATP) with DMSO concentration at 15%. The CDK1/Cyclin B enzyme was diluted in kinase assay buffer 2 (25 mM HEPES, pH 7.0, 8 mM MgCl2, 0.003% Tween 20, 0.045% BSA, 1.5 mM DTT, and 0.675 μM Rb protein). To initiate the kinase reaction, 20 μL of compound solution was mixed with 40 μL of CDK1/Cyclin B solution in assay plates with final concentration of CDK1/Cyclin B and Rb at 0.1 μg/mL and […], respectively, and incubated at 37° C. for 30 min. […] At the completion of the incubation, 35 μL of reaction mixture was transferred to fresh 384-well black polystyrene plates (Corning Incorporated, Corning, N.Y.) and read on a fluorescent plate reader at excitation wavelength of 340 nm and emission wavelength of 665/615 nm. […]

Sequence of CDK1/Cyclin B (P06493 whole entry, the tested form may be a part): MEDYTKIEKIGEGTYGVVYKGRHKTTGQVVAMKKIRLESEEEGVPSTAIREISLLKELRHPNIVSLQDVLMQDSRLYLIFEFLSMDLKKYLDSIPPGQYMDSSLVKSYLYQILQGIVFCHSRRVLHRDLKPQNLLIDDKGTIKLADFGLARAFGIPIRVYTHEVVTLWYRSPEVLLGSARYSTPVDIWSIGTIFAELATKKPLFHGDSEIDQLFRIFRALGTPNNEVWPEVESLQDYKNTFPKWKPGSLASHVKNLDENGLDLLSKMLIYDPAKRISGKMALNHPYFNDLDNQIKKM
Sequence of CDK1/Cyclin B (P14635 whole entry partner, the tested form may be a part): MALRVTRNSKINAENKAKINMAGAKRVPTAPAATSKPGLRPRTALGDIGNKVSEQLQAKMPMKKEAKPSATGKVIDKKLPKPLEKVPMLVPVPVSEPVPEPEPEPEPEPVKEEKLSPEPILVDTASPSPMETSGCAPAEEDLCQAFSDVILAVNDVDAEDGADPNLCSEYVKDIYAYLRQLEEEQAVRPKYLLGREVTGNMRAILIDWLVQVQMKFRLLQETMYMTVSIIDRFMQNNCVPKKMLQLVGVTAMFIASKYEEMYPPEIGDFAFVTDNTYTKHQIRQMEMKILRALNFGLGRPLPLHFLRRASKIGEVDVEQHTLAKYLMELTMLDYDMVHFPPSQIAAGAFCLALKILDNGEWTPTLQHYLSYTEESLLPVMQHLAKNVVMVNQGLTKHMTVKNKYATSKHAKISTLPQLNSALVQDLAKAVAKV

| SMILES | melting point [°C] | Ki (CDK1/Cyclin B) [nM] | Ki (CDK2/Cyclin E) [nM] |
| --- | --- | --- | --- |
| O=C1N=C(NCc2cccs2)S/C1=C\c1c[nH]c2ncccc12 [Example 1, 5-[1-(1H-Pyrrolo[2,3-b]pyridin-3-yl)-meth-(Z)-ylidine]-2-[(thiophen-2-ylmethyl)-amino]-thiazol-4-one] | 243 to 246 | – | – |
| O=C1N=C(N[C@@H](CO)c2ccccc2)S/C1=C\c1c[nH]c2ncccc12 [Example 3, 2-(2-Hydroxy-1-(R)-phenyl-ethylamino)-5-[1-(1H-pyrrolo[2,3-b]pyridin-3-yl)-meth-(Z)-ylidine]-thiazol-4-one] | 317 to 319 | – | – |
| O=C1N=C(NCc2ccc(F)c(Cl)c2)S/C1=C\c1c[nH]c2ncccc12 [Example 4, 2-(3-Chloro-4-fluorobenzylamino)-5-[1-(1H-pyrrolo[2,3-b]pyridin-3-yl)-meth-(Z)-ylidine]-thiazol-4-one] | 318 to 320 | – | – |
| O=C1N=C(NC2C[C@@H]2c2ccccc2)S/C1=C\c1c[nH]c2ncccc12 (stereo partly drawn) [Example 5, 2-((1R,2S)-2-Phenyl-cyclopropylamino)-5-[1-(1H-pyrrolo[2,3-b]pyridin-3-yl)-meth-(Z)-ylidine]-thiazol-4-one] | 308 to 310 | 10 | 17 |
| CC(C)[C@H](CO)NC1=NC(=O)/C(=C/c2c[nH]c3ncccc23)S1 [Example 6, 2-(1-(R)-Hydroxymethyl-2-methylpropylamino)-5-[1-(1H-pyrrolo[2,3-b]pyridin-3-yl)-meth-(Z)-ylidine]-thiazol-4-one] | 269 to 271 | – | – |
| CC(=O)OC[C@H](NC1=NC(=O)/C(=C/c2c[nH]c3ncccc23)S1)c1ccccc1 [Example 7, Acetic Acid 2-[4-oxo-5-(1H-pyrrolo[2,3,b]pyridine-3-ylmethylene)-4,5-dihydro-thiazol-2-ylamino]-2-(R)-phenyl-ethyl ester] | 243.7 to 246.8 | – | – |
| Cc1ccsc1CNC1=NC(=O)/C(=C/c2c[nH]c3ncccc23)S1 [Example 10, 2-[(3-Methyl-thiophen-2-ylmethyl)-amino)-5-[1-(1H-pyrrolo[2,3-b]pyridin-3-yl)-meth-(Z)-ylidine]-thiazol-4-one] | – | 48 | 18 |
| NC1=NC(=O)/C(=C/c2c[nH]c3ncccc23)S1 [Example 15, 2-Amino-5-[1-(1H-pyrrolo[2,3-b]pyridin-3-yl)-meth-(Z)-ylidene]-thiazol-4-one] | – | 830 | 252 |
| COc1ccccc1NC1=NC(=O)/C(=C/c2c[nH]c3ncccc23)S1 [Example 18, 2-(2-Methoxy-phenylamino)-5-[1-(1H-pyrrolo[2,3-b]pyridin-3-yl)-meth-(Z)-ylidene]-thiazol-4-one] | – | 1150 | 187 |
